For 86 compounds, inhibition results are on record in PubChem BioAssay AID1288 (Columbia University Molecular Screening Center, 2008).

For orientation: inhibition means the change of the read-out against control, counted positive when it falls.

Activity calls are given as the source filed them. How the calls were made is not given here.

The assay in a line: inhibitors of TNFa-induced E-selectin expression, confirmation, imaging, retest plus dose response, cell count (AID 1288).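 Further: 0% = stimulated vehicle wells and 100% = unstimulated vehicle wells.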 The conditions noted are these: human endothelial cells, TNFa-induced E-selectin, imaging; at 2 µM; stronger effect = higher value.
As for `CCOC(=O)c1ccc(-n2ccnc2)c(NC(=O)c2ccc(Cl)cc2)c1`, the inhibition was 11.1% (inactive).
The same measure for `CC(C)n1c(SCC(=O)Nc2nc3c(s2)CCCC3)nc2c1c(=O)n(C)c(=O)n2C`: 3.36% (inactive).
The same measure for `CC1CC(Nc2ccccc2)=CC(=O)O1` (stereo unspecified): -4.3% (inactive); for `CN(C(=S)Nc1ccc(Oc2ccccc2)cc1)c1ccc(O)cc1`: 12.6% (inactive).
With `CC(C)Cn1cnc2c1c(=O)n(CC(=O)Nc1ccc3c(c1)OCO3)c(=O)n2Cc1ccccc1`, the inhibition is 14.6% (inactive).
The same measure for `CCOc1ccc(NC(=O)C2CCC(N3C(=O)C4CC=CCC4C3=O)CC2)cc1` (stereo unspecified): 2.62% (inactive); for `CCOC(=O)c1c(NC(C)=O)sc2c(O)cccc12`: 35.6% (inactive); for `COc1ccc(C2=NNC(c3cccs3)=Nc3ccc(OC)cc32)cc1`: 17.8% (inactive).
Consider `COc1ccc(-c2csc3ncnc(Oc4cccc5ccc(C)nc45)c23)cc1`, for which the inhibition was 5.48% (inactive).
The same measure for `O=C(NNc1nc2ccccc2s1)Nc1ccccc1`: 5.88% (inactive); for `COc1cccc(-c2cnc(NCc3cc(Cl)ccc3O)n2C)c1`: 3.22% (inactive); for `O=C(N/N=C/c1ccc(C(F)(F)F)cc1)c1ccc(O)cc1`: 4.56% (inactive).
Regarding `CCc1n[nH]c2c1C(=O)CC(C)(C)C2`, the inhibition was 18% (inactive).
As for `O=C(/C=C/c1ccc2c(c1)OCO2)Nc1nc2ccccc2s1`, the inhibition is 16.2% (inactive).
The same measure for `COCCNC(=O)c1ccccc1NC(=O)c1cccc([N+](=O)[O-])c1C`: 0.34% (inactive); for `CCOC(=O)C1=C(c2ccccc2)N(C)C(=O)NC1c1ccc(O)c(OC)c1` (stereo unspecified): 8.42% (inactive).
The same measure for `COCCNC(=O)c1ccc(N(C)S(=O)(=O)c2ccc(OC)c(OC)c2)cc1`: 0.94% (inactive); for `CC1CCN(S(=O)(=O)c2ccc(NC(=O)CSc3ncccc3C(=O)O)cc2)CC1`: 5.02% (inactive); for `COc1ccc(C(=O)C(CO)Oc2ccccc2OC)cc1OC` (stereo unspecified): 1.41% (inactive).
`CSc1nc(=O)n2cc(C)ccc2n1`: the inhibition is 1.88% (inactive).
The same measure for `C=CCN1C(c2cccc(C(F)(F)F)c2)=CS/C1=C(/C#N)c1nnc(N2CCOCC2)n1-c1ccccc1`: 31.5% (inactive); for `C/C=C/Cn1c(N2CCCCCC2)nc2c1c(=O)[nH]c(=O)n2C`: 17.1% (inactive).
The same measure for `COc1ccc(Br)cc1CN(C)CC(=O)Nc1c(Cl)cccc1Cl`: 0.05% (inactive); for `CCN(CC)S(=O)(=O)c1ccc(NC(=O)CSc2nnc(-c3ccc(F)cc3)o2)cc1`: 1.25% (inactive); for `C1=C(c2ccc(-c3ccccc3)cc2)Nc2ncnn2C1c1ccco1` (stereo unspecified): 26.2% (inactive).
The same measure for `O=C(Cc1ccc(-c2ccccc2)cc1)NCCN1CCOCC1`: 2.16% (inactive); for `COc1ccccc1-c1nc(-c2ccc(C)nc2OC)no1`: 0.65% (inactive).
Turning to `CCOC(=O)Cc1nnc(NC(=O)CSc2ccc(Cl)cc2)s1`, the inhibition was 2.82% (inactive).
The same measure for `COc1ccc2cc(S(=O)(=O)N3CCN(C)CC3)ccc2c1`: 16.8% (inactive); for `CCS(=O)(=O)c1ccc2oc(Nc3ccc(C(C)C)cc3)nc2c1`: 4.39% (inactive).
For the compound `CN1CCN(S(=O)(=O)c2ccc(NC(=O)c3ccc(F)cc3)cc2)CC1`, the inhibition was 5.58% (inactive).
Turning to `COc1ccccc1CNC(=O)CSc1nnc2ccc(-c3cccnc3)nn12`, the inhibition is 2.18% (inactive).
The same measure for `Cc1noc(C)c1S(=O)(=O)Nc1ccc(C(=O)NC2CCCCC2C)cc1` (stereo unspecified): 22.8% (inactive); for `COc1cccc(S(=O)(=O)Nc2ccc(C(=O)N3CCN(C(=O)c4ccco4)CC3)cc2)c1`: 31.3% (inactive).
The same measure for `CCOC(=O)c1cccc(NC(=O)CSc2nnc(-c3ccoc3C)n2CCOC)c1`: -4.74% (inactive); for `Cc1ccc(C(=O)Nc2ccc(O)cc2C(=O)O)cc1`: 3% (inactive).
The same measure for `Cn1c(=O)c2c(nc(SCC(=O)NC34CC5CC(CC(C5)C3)C4)n2C)n(C)c1=O`: 16.3% (inactive).
In the case of `COc1cc(NC2c3ncccc3C(=O)N2Cc2ccco2)cc(OC)c1` (stereo unspecified), the inhibition is 7.75% (inactive).
Consider `COc1ccccc1-n1c(=O)[nH]c2c(C(N)=O)nc(C3CCCCC3)nc21`, for which the inhibition is 13.4% (inactive).
The same measure for `Cc1ccc2oc(Nc3nc(-c4ccccc4)cc(=O)[nH]3)nc2c1`: 10.7% (inactive); for `CCOc1cc(C(=O)NCc2nnc(SCC(=O)OC)n2C)cc(OCC)c1OCC`: -6.58% (inactive).
The same measure for `Cc1cc(OCC(=O)Nc2ccncc2)c(C)cc1Br`: 3.41% (inactive).
The same measure for `CS(=O)(=O)N1CCc2cc(-c3csc(NC(=O)Cc4cccs4)n3)ccc21`: 11.6% (inactive); for `Clc1ccc(CNc2ccc3nnc(-c4ccccc4)n3n2)cc1`: 0.04% (inactive).
Take `O=C(COc1ccc(/C=N/NC(=O)C(=O)N2CCCCCC2)cc1)Nc1ccccc1Cl`: the inhibition is 8.09% (inactive).
The same measure for `COc1ccc(C(=O)CN2C(=O)NC3(CCCc4ccccc43)C2=O)cc1OC` (stereo unspecified): 7.22% (inactive); for `O=C(Nc1ccc(F)cc1)N1CCOCC1`: 29.5% (inactive).
For `COc1ccc2nc(SCc3nc(N)nc(Nc4ccccc4)n3)[nH]c2c1`, the inhibition is 6.2% (inactive).
The same measure for `Cc1cc(NC(=O)CCC(=O)N(CC(=O)NCC2CCCO2)c2ccccc2C)no1` (stereo unspecified): 14.8% (inactive); for `COc1cccc(C(C)NC(=O)c2c(F)cccc2Cl)c1` (stereo unspecified): 21.5% (inactive).
The same measure for `CCCNC(=O)C1CCN(S(=O)(=O)c2c(C)noc2/C=C\c2ccc(OC)cc2)CC1`: 6.76% (inactive); for `O=c1cc(-c2ccccc2)c2ccccc2[nH]1`: 35% (inactive); for `Cn1c(N)c(C(=O)COC(=O)CN2C(=O)c3ccccc3C2=O)c(=O)n(C)c1=O`: 17.5% (inactive).
The same measure for `COCCN(C(=O)CCC(=O)Nc1ccccn1)C(C(=O)NC1CCCC1)c1ccc(OC)cc1` (stereo unspecified): 2.57% (inactive); for `CCC(C)(C)n1nnnc1C(c1ccc(OC)c(OC)c1)N1CCN(c2ccccc2)CC1` (stereo unspecified): 2.72% (inactive); for `C=CCNS(=O)(=O)c1nc(C)c(Cl)c(C)c1C#N`: 0.74% (inactive).
On to `O=C(Nc1nc(-c2ccncc2)cs1)c1ccc(S(=O)(=O)N2CCOCC2)cc1`, for which the inhibition is 1.3% (inactive).
As to `O=C(/C=C/c1ccccc1)N1CCC(Cc2ccccc2)CC1`, the inhibition is 9.46% (inactive).
The same measure for `C/C(=N\NC(=O)CN(c1ccccc1Br)S(C)(=O)=O)c1ccc2c(c1)OCCO2`: 1.65% (inactive); for `C=CCN1CCN(C(c2cc(OC)ccc2OC)c2nnnn2CC2CCCO2)CC1` (stereo unspecified): 31.2% (inactive); for `FC(F)(F)c1cnc2c(-c3ccccc3)n[nH]c2c1`: 0.15% (inactive).
`Cc1cccc(OCCCC(=O)O)c1`: the inhibition is 4.01% (inactive).
The same measure for `CCN1c2ccccc2-c2nc3ccccc3n2C1c1cccnc1` (stereo unspecified): 1.05% (inactive).
The same measure for `Cc1nc(SCC(N)=O)c([N+](=O)[O-])[nH]1`: 9.44% (inactive); for `CCOC(=O)c1cnc2ccc(C)cc2c1Nc1ccc(N2CCOCC2)cc1`: 5.86% (inactive).
The same measure for `COc1ccc(-n2nc([N+](=O)[O-])c(=NCCc3ccc(Cl)cc3)n2O)cc1`: 6.09% (inactive); for `Cn1nnnc1SCc1nnc(-c2ccc(Cl)cc2)o1`: 6.53% (inactive).
For the compound `Cc1c(Cl)cccc1N1C(=O)CC(N(O)c2ccccc2)C1=O` (stereo unspecified), the inhibition is 12.9% (inactive).
For `N=c1sccn1CC(=O)NCCc1ccc(Cl)cc1`, the inhibition was 3.43% (inactive).
As for `O=C(Nc1ccccc1N1CCOCC1)c1ccc(Cl)nc1`, the inhibition was 3.97% (inactive).
The same measure for `CCC(C)NC(=O)C(NS(=O)(=O)c1cccc2nsnc12)c1ccccc1` (stereo unspecified): 9.11% (inactive).
The same measure for `CC(=O)N[C@@H](Cc1c[nH]c2ccccc12)C(=O)OCC(=O)Nc1ccc(S(=O)(=O)N(C)C)cc1`: 7.84% (inactive).
With `Oc1ccccc1Nc1nc(NCC2CCCO2)c2ccccc2n1` (stereo unspecified), the inhibition was 5.39% (inactive).
The same measure for `COc1cc(CNCc2ccco2)ccc1OCc1ccccc1`: 11.6% (inactive); for `CCOC(=O)/C(C#N)=C1/C=Cc2ccccc2N1CC`: 10.7% (inactive).
Consider `COc1ccc(C(CC(=O)NCc2ccccc2)Sc2n[nH]c(-c3ccccc3)n2)cc1` (stereo unspecified), for which the inhibition was 29.1% (inactive).
The same measure for `COc1ccc(-n2c(SCC(=O)NCc3ccco3)nc3c([nH]c4ccccc43)c2=O)cc1`: 1.34% (inactive); for `O=C(CN(CC1CCCO1)C(=O)CCC(=O)Nc1nccs1)NCc1ccc2c(c1)OCO2` (stereo unspecified): 33.3% (inactive); for `CC(=O)Nc1ccc(OCCF)cc1`: 0.31% (inactive).
The same measure for `COC(=O)CN1C(=S)N(c2ccc(Cl)cc2)C(=O)C1CC(=O)Nc1ccc(Cl)cc1` (stereo unspecified): -1.33% (inactive); for `O=C(Nc1nc(-c2ccccc2)c(-c2ccccc2)s1)c1ccc(S(=O)(=O)N(CCCl)CCCl)cc1`: -7.24% (inactive); for `COc1ccc(-n2nc3c(c2NC(=O)c2cc(Br)ccc2Cl)CS(=O)C3)cc1` (stereo unspecified): -1.7% (inactive).
Turning to `Cn1cccc1/C=C1\C(=O)NC(=O)N(CCC2=CCCCC2)C1=O`, the inhibition is 6.01% (inactive).
The same measure for `Cc1ccc(CNC(=O)CCc2nc3ccccc3c(=O)[nH]2)cc1`: 15.6% (inactive); for `CCOC(=O)C1C(=O)CC(C)(O)C(C(=O)OCC)C1c1ccccc1` (stereo unspecified): -2.22% (inactive).
As to `COc1cc(C2C(C#N)=C(N)Oc3c2oc(CO)cc3=O)cc(OC)c1OC` (stereo unspecified), the inhibition was 10.9% (inactive).
